Here are results for 20 molecules from patent US9028856B2, “Synergistic pesticide compositions” (priority 2008, dated 2015).

The Log P is the decadic logarithm of the partition coefficient of the neutral form, usually between octanol and water.

The conditions of data set [1]: octanol-water partition coefficient (Log K ow), Table 1; cited from earlier work.
Data set [2] relates to Culex quinquefasciatus mosquito. The experiment in a line: USDA Petri Dish Method, 3 min exposure to treated glazed tile (twenty 4-6 day old females). It is filed as in vivo. The settings on record: fipronil 0.01% AI with or without adjuvant. Here is the method:
MATERIALS AND METHODS: Solutions of resmethrin at 1 and 0.5% AI were prepared with and without adjuvant in acetone. […] USDA Petri Dish Method was used as initial screening protocol. Twenty, 4-6 day old female Culex quinquefasciatus mosquitoes were exposed to each treatment for 3 minutes and then moved to a clean untreated white paper index card. Treatments were replicated a minimum of three times. Mosquito knockdown was evaluated at 3 minute intervals for the first 15 minutes and then at 5 minute intervals for the remainder of an hour. A small cotton ball soaked in sucrose solution was added on the screen top of the petri-dish as a drinking source after the 2 hour evaluation. Mortality was evaluated at 24 hours after exposure.
Treatments were allowed to dry overnight. USDA Petri Dish Method was used as initial screening protocol. Twenty, 4-6 day old female Culex mosquitoes were exposed to each treatment for 3 minutes and then moved to a clean untreated white paper index card. Treatments were replicated a minimum of three times. Mosquito knockdown was evaluated at various intervals through 3 hours after exposure. A small cotton ball soaked in sucrose solution was added on the screen top of the petri-dish as a drinking source. Mortality was evaluated at 24 hours after exposure.
Treatments were allowed to dry overnight. USDA Petri Dish Method was used as initial screening protocol. Twenty, 4-6 day old female Culex quinquefasciatus mosquitoes were exposed to each treatment for 3 minutes and then moved to a clean untreated white paper index card. Treatments were replicated a minimum of three times. Mosquito knockdown was evaluated at various intervals through 2 hours after exposure. A small cotton ball soaked in sucrose solution was then added on the screen top of the petri-dish as a drinking source. Mortality was evaluated at 24 hours after exposure.
Treatments were allowed to dry overnight. USDA Petri Dish Method was used as initial screening protocol. Twenty, 4-6 day old female Culex quinquefasciatus mosquitoes were exposed to each treatment for 3 minutes and then moved to a clean untreated white paper index card. Treatments were replicated a minimum of three times. Mosquito knockdown was evaluated at various hourly intervals. A small cotton ball soaked in sucrose solution was added on the screen top of the petri-dish as a drinking source after 2 hours. Mortality was evaluated at 24 hours after exposure.

The subject of data set [3] is Red Imported Fire ant (RIFA), Solenopsis invicta. Nature of the data set: Knockdown/mortality of ant workers under continuous exposure on treated glazed tile. It is filed as in vivo. The settings on record: fipronil 0.01% AI with or without adjuvant. The text has this:
(§1) Treatments were allowed to dry overnight. […] Treatments were replicated minimum three times.
(§2) Treatments were allowed to dry overnight. […] Treatments were replicated a minimum of three times.

Data set [4] deals with Odorous House ant, Tapinoma sessile. The data set is described as above. It is filed as in vivo. The settings on record: fipronil 0.001% (FIG. 45); ethiprole 0.01% (FIG. 53); with or without adjuvant.
Source text: Actual coverage was about 5″×5″ (or 161 cm2) for easy handling. Treatments were allowed to dry overnight. […] Treatments were replicated minimum three times.
as §1, §2
Treatments were allowed to dry overnight. […] Treatments were replicated minimum of three times. […] The results are shown in FIG. 84 (No adjuvant alone treatment was performed).

The format of data set [5] is physicochemical. The settings on record: classified from Log P. From the text: As used herein, a “partition coefficient” is defined as the ratio of concentrations of an un-ionized compound between solutions of water and octanol. To measure the partition coefficient of ionizable solutes, the pH of the aqueous phase is adjusted such that the predominant form of the compound is un-ionized. The logarithm of the ratio of the concentrations of the un-ionized solute in the solvents is referred to herein as log P or log K ow.
As noted herein, the octanol-water partition coefficient may be used to identify the cuticular penetration of a particular active ingredient. One factor in the relative speed through which any insecticide acts is the insecticide's ability to cross the insect cuticle. A determining factor for cuticle penetration is Log K ow, also known as Log P. Log K ow (Log P) is the octanol-water partition coefficient for a neutral molecule. Log P is used hereinfurther, but, as noted above, the term is synonymous with Log K ow. As previously noted, the cuticular penetration of any particular active ingredient as against a plant cuticle is not indicative of that same active ingredient's ability to penetrate an insect cuticle.
The cuticular penetration of a compound is classified as “INTERMEDIATE” when the Log P value is between about 2.0 and about 4.0.

Data set [6] concerns susceptible/normal German cockroach (Monheim strain), Blattella germanica. The experiment in a line: Knockdown/mortality of male cockroaches under continuous exposure on treated glazed tile. It is filed as in vivo. The settings on record: fipronil 0.001% (FIG. 48); ethiprole 0.01% (FIG. 55); with or without adjuvant. Here is the method: Treatments were allowed to dry overnight. […] Treatments were replicated a minimum of three times. […]
Treatments were allowed to dry overnight. […] Treatments were replicated a minimum of three times. Cockroach knockdown/mortality was evaluated at 5 minute intervals for the first 60 minutes after exposure and then at 2, 18 and 24 hours.

The subject of data set [7] is Argentine ant, Linepithema humile. Nature of the data set: Knockdown/mortality of ant workers under continuous exposure on treated glazed tile. In a few lines: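 0.5% AI imidacloprid in acetone, alone or with 0.1, 1.0 or 5.0% additive (benzenepropanoic acid, oleic acid, methyl oleate, methyl linoleate, methyl palmitate or BHA), 1 ml dried overnight on glazed tile (~161 cm^2). Ten workers confined under continuous exposure, water from 3 h; knockdown/mortality scored at intervals and 24 h; ≥3 replicates.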

In data set [8] the test system is Musca domestica, susceptible strain WHO(N). Nature of the data set: Topical insecticide application to houseflies. It counts as in vivo. The settings on record: 0.5 μl per fly, % a.i. conc. in acetone, Table 95. Here is the method: Male Musca domestica, susceptible strain WHO(N), or other strains were used.
The flies were anaesthetized with CO2, and ten individuals were positioned (on their back) on a filter paper which was on the top of a carbon dioxide emitting device. […]
Afterwards the insects were transferred into a beaker closed by a gauze lid with a water saturated cotton pad on the top.
At regular intervals, mortality was recorded (cumulatively).

In a further data set the test system is Aedes aegypti mosquito. The experiment in a line: USDA Petri Dish Method, 3 min exposure to treated glazed tile. It counts as in vivo. The settings on record: Aedes aegypti, glazed tile, 3 min exposure. In a few lines: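 USDA Petri Dish screen: groups of twenty female Aedes aegypti (4-6 days old) held 3 minutes on dried acetone-based treatments (with/without adjuvant), then transferred to untreated card. Replicated three or more times; knockdown followed over time, mortality recorded 24 hours post-exposure with sucrose-soaked cotton available.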

A value given as a limit tells only on which side of the number the result lay.

Regarding `N#Cc1nn(-c2c(Cl)cc(C(F)(F)F)cc2Cl)c(N)c1[S+]([O-])C(F)(F)F` (single isomer, unassigned) [fipronil, reference compound], the “Log P” value in [1] was 4.0. Besides, the “mortality at 24 hours (FIG. 44)” value in [2] is given as “around 50%”. The “time to a relatively high percentage of mortality (around 80%)” value in [3] is given as “around 20 hours”. Besides, the “time at which 100% mortality was observed” value in data set [4] came to 25 h. Also, the “Likelihood of Direct Insect Cuticular Penetration” value (“Likelihood” for short) in data set [5] is “Fast (classified as “FAST” when it has a Log P value of about >4.0)”. Besides, the “mortality at 25 hours” value in data set [6] is listed as “around 40%”. Moreover, the “time at which 100% mortality was seen” value in data set [7] (fipronil 0.001% with or without adjuvant (FIG. 43)) is reported as “around 25 hours”.
Regarding `CC1(C)[C@H](C(=O)O[C@H](C#N)c2cccc(Oc3ccccc3)c2)[C@@H]1C=C(Br)Br` [0.00064% DTM], the “% Mortality after” value in data set [8] (15′) came out at 100%; in data set [8] (30′), 100%; in data set [8] (1 h), 100%; in data set [8] (2 h), 100%; in [8] (4 h) it was 100%; in data set [8] (1 d), 80%.
As to `CC1(C)C(C=C(Br)Br)C1C(=O)OC(C#N)c1cccc(Oc2ccccc2)c1` (stereo not drawn) [0.000128% DTM], the “% Mortality after” value in [8] (15′) is 20%; in data set [8] (30′), 50%; in [8] (1 h) it was 70%; in [8] (2 h), 70%; in data set [8] (4 h) it was 80%; in data set [8] (1 d) it was 50%.
Turning to `CC1(C)[C@H](C(=O)O[C@H](C#N)c2cccc(Oc3ccccc3)c2)[C@@H]1C=C(Br)Br` [0.0000256% DTM], the “% Mortality after” value is 10% in data set [8] (15′); 20% in data set [8] (30′); 30% in [8] (1 h); 20% in [8] (2 h); 20% in data set [8] (4 h); 60% in data set [8] (1 d).
Regarding `CCOC(=O)CC(SP(=S)(OC)OC)C(=O)OCC` (stereo not drawn) [malathion], in [1], the log partition coefficient (Log P) is listed as 2.7. Besides, in data set [5], the “Likelihood” value is “Intermediate (classified as “INTERMEDIATE” when the Log P value is between about 2.0 and about 4.0)”.
In the case of `O=C(NC(=O)c1c(F)cccc1F)Nc1cc(Cl)c(OC(F)(F)C(F)C(F)(F)F)c(Cl)c1F` (stereo not drawn) [noviflumuron], in data set [1], the “Log P” value is 4.9. Also, the “Likelihood” value in data set [5] is recorded as “Fast (classified as “FAST” when it has a Log P value of about >4.0)”.
As to `CC(COc1ccc(Oc2ccccc2)cc1)Oc1ccccn1` (stereo not drawn) [pyriproxifen], the “Log P” value in data set [1] is listed as 5.4. In addition, in data set [5], the “Likelihood” value is given as “Fast (classified as “FAST” when it has a Log P value of about >4.0)”.
Take `CC(C)=CC1C(C(=O)OCc2coc(Cc3ccccc3)c2)C1(C)C` (stereo not drawn) [resmethrin]: the log partition coefficient (Log P) in data set [1] is given as 5.4. For the same molecule, the “toxicity / efficacy of the substance alone (summary in words)” value with Aedes aegypti mosquito was “did not provide mosquito knockdown”. Moreover, in data set [5], the “Likelihood” value is listed as “Fast (classified as “FAST” when it has a Log P value of about >4.0)”.
`CCC(C)(C)C(=O)OC1=C(c2ccc(Cl)cc2Cl)C(=O)OC12CCCCC2` [spirodiclofen]: in data set [1], the “Log P” value is reported as 5.8. Further, the “Likelihood” value in data set [5] was “Fast (classified as “FAST” when it has a Log P value of about >4.0)”.
As to `CCNS(=O)(=O)C(F)(F)C(F)(F)C(F)(F)C(F)(F)C(F)(F)C(F)(F)C(F)(F)C(F)(F)F` [sulfluramid], the log partition coefficient (Log P) in data set [1] is recorded as over 6.8. The “Likelihood” value in data set [5] is “Fast (classified as “FAST” when it has a Log P value of about >4.0)”.
For the molecule `CCc1nn(C)c(C(=O)NCc2ccc(C(C)(C)C)cc2)c1Cl` [tebufenpyrad], the lipophilicity (Log P) in [1] is on record as 4.9. The “Likelihood” value in data set [5] is listed as “Fast (classified as “FAST” when it has a Log P value of about >4.0)”.
`N#C/N=C1\SCCN1Cc1ccc(Cl)nc1` [thiacloprid]: the lipophilicity (Log P) in [1] is 1.3. For the same molecule, the “Likelihood” value in data set [5] is recorded as “Slow (classified as “SLOW” when the compound has a Log P value of about <2.0)”.
In the case of `CN1COCN(Cc2cnc(Cl)s2)/C1=N\[N+](=O)[O-]` [thiamethoxam], the “Log P” value in [1] is reported as 0.1. For the same molecule, the “Likelihood” value in data set [5] is listed as “Slow (classified as “SLOW” when the compound has a Log P value of about <2.0)”.
Turning to `CS/C(C)=N\OC(=O)N(C)SN(C)C(=O)O/N=C(\C)SC` [thiodicarb], in [1], the lipophilicity (Log P) is recorded as 1.6. Besides, the “Likelihood” value in [5] is “Slow (classified as “SLOW” when the compound has a Log P value of about <2.0)”.
In the case of `O=C(NC(=O)c1ccccc1Cl)Nc1ccc(OC(F)(F)F)cc1` [triflumuron], in [1], the “Log P” value is given as 4.9. Moreover, in [5], the “Likelihood” value is “Fast (classified as “FAST” when it has a Log P value of about >4.0)”.
As for `CC1(C)C(C=C(Cl)Cl)C1C(=O)OC(C#N)c1ccc(F)c(Oc2ccccc2)c1` (stereo not drawn) [β-cyfluthrin, reference compound], in data set [1], the “Log P” value is reported as 5.9. The “toxicity / efficacy of the substance alone (summary in words)” value is 100% knockdown, or nearly 100% knockdown even in the absence of the adjuvant in the data set with Aedes aegypti mosquito and “extremely effective at killing the ants” in data set [7] (Argentine ant, treated glazed tile). For the same molecule, the “Likelihood” value in data set [5] was “Fast (classified as “FAST” when it has a Log P value of about >4.0)”.
As to abamectin, the log partition coefficient (Log P) in data set [1] is on record as 4.4. The “Likelihood” value in data set [5] is recorded as “Fast (classified as “FAST” when it has a Log P value of about >4.0)”.
For the molecule pyrethrin, the log partition coefficient (Log P) in [1] is 4.3. Besides, the “Likelihood” value in data set [5] is “Fast (classified as “FAST” when it has a Log P value of about >4.0)”.
For the molecule spinosad, the “Log P” value in data set [1] is 2.8-5.2. Further, in data set [5], the “Likelihood” value is “Intermediate-Fast”.
Consider spiromesifen, for which, in [1], the log partition coefficient (Log P) is on record as 4.6. Also, the “Likelihood” value in data set [5] was “Fast (classified as “FAST” when it has a Log P value of about >4.0)”.
